Source: ChEMBL document CHEMBL1201862, “PubChem BioAssay data set” (2004)
Activity calls are given as the source filed them.

Experiments:
[1] = target: T1, Lytic switch protein BZLF1 (Epstein-Barr virus (strain B95-8) (HHV-4) (Human herpesvirus 4), UniProt P03206); assay: EBV ZTA inhibitors, dose response, counter-screen for EBNA-1 inhibitor project, biochemical, fluorescence polarization, Epstein-Barr virus, 1536-well (AID 2377); design: species or system human gammaherpesvirus 4;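 also: fluorescence polarization of Cy5-labelled ZRE DNA probe bound by purified Zta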
T1 sequence (P03206 whole entry): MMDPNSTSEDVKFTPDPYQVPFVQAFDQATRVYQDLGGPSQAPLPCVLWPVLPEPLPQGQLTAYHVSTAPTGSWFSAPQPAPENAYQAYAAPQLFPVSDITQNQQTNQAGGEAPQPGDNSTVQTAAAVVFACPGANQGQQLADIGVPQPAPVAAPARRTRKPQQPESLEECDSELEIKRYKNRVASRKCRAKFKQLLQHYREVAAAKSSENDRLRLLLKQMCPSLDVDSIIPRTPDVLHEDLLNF

[2] = target: T2, Epstein-Barr nuclear antigen 1 (Epstein-Barr virus (strain B95-8) (HHV-4) (Human herpesvirus 4), UniProt P03211); assay: EBNA-1 inhibitors, dose response, biochemical, fluorescence polarization, 1536-well (AID 2381); design: species or system human gammaherpesvirus 4;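 also: fluorescence polarization of a Cy5 DNA probe bound by EBNA-1 protein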
T2 sequence (P03211 whole entry): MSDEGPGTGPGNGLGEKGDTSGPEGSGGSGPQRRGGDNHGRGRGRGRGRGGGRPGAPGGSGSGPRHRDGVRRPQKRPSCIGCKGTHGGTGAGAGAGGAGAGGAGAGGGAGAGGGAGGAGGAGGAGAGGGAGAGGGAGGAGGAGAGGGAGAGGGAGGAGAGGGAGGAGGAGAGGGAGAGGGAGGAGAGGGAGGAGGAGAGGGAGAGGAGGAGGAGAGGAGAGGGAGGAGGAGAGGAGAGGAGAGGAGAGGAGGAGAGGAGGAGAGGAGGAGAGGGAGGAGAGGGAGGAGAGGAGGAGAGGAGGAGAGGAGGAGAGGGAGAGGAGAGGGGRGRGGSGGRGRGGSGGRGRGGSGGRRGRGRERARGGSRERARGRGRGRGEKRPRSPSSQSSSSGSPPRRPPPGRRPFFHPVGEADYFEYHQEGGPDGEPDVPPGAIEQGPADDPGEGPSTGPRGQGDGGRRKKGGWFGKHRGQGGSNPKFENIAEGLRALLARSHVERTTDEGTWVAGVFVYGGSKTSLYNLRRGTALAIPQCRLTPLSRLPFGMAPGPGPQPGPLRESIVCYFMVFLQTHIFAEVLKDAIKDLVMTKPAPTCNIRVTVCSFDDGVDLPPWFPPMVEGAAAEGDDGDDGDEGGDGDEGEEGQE

[3] = inhibitors of intracellular T. cruzi replication, confirmation, NIH3T3 host cells, beta-gal luminescence (AID 2044); type: functional, cell-based;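 also: intracellular parasites grown in NIH/3T3 mouse fibroblasts as host cells; luminescent beta-galactosidase reporter signal from transgenic T. cruzi replicating inside host cells; inhibitors lower the luminescence signal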
[4] = cytotoxicity toward NIH3T3 fibroblasts, dose response, counter-screen, cell-based, ATP luminescence, mouse fibroblasts (AID 2010); type: functional;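 also: cells exposed to compound for about 90 hours before reading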
[5] = cells
[6] = target: Induced myeloid leukemia cell differentiation protein Mcl-1 (Homo sapiens, UniProt Q07820); type: functional
[7] = target: T3, Peroxisome proliferator-activated receptor gamma/Nuclear receptor corepressor 2 (Homo sapiens, UniProt P37231+Q9Y618); assay: Counterscreen for NR2E3 inverse agonists: TR-FRET-based biochemical high throughput dose response assay to identify inverse agonists of the interaction between peroxisome proliferator-activated receptor gamma (PPARg) and nuclear receptor co-repressor 2 (NCOR2).; type: functional
[8] = target: T4, Photoreceptor-specific nuclear receptor (Homo sapiens, UniProt Q9Y5X4); assay: NR2E3 inverse agonists, dose response, biochemical, TR-FRET (AID 463256); type: functional
[9] = target: T5, Trace amine-associated receptor 1 (Homo sapiens, UniProt Q96RJ0); assay: Fluorescence-based cell-based high throughput dose response assay to identify agonists of the human trace amine associated receptor 1 (TAAR1).; type: functional
T5 sequence (Q96RJ0 whole entry): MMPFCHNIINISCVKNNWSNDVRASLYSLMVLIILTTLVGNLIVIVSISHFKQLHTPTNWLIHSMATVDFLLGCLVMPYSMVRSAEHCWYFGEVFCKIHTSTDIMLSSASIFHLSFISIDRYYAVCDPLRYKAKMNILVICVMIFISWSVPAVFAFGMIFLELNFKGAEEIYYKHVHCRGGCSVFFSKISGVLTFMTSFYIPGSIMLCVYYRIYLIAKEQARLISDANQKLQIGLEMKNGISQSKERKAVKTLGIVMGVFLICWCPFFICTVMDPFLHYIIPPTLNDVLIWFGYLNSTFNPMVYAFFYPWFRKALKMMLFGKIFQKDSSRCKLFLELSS

[10] = cells; type: functional, cell-based
[11] = cells; type: functional, cell-based; remark: listed apart in the source
[12] = target: T3, Peroxisome proliferator-activated receptor gamma/Nuclear receptor corepressor 2; type: functional
[13] = target: T5, Trace amine-associated receptor 1; assay: Counterscreen for agonists of the human trace amine associated receptor 1 (hTAAR1): Fluorescence-based cell-based high throughput dose response assay to identify hTAAR1 agonist that also desensitize TAAR1 receptor response.; type: functional
[14] = target: T4, Photoreceptor-specific nuclear receptor; type: functional
[15] = A cytotoxicity screen of small molecule inhibitors of the PhoP region in Salmonella typhi identified in the primary screen. [Related pubchem assays: 1850, 1864, 1985 ]; type: functional

T4 sequence (Q9Y5X4 whole entry): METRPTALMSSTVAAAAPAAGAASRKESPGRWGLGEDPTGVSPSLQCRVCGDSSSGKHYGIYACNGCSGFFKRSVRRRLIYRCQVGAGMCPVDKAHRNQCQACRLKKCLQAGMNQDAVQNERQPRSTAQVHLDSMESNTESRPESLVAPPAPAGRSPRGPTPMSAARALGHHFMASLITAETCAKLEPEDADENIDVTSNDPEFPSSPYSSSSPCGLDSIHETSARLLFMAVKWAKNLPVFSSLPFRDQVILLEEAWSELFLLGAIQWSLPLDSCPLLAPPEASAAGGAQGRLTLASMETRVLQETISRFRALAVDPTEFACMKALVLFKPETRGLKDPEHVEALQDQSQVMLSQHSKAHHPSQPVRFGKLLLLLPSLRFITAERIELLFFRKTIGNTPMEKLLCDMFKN
T3 sequence (P37231 whole entry): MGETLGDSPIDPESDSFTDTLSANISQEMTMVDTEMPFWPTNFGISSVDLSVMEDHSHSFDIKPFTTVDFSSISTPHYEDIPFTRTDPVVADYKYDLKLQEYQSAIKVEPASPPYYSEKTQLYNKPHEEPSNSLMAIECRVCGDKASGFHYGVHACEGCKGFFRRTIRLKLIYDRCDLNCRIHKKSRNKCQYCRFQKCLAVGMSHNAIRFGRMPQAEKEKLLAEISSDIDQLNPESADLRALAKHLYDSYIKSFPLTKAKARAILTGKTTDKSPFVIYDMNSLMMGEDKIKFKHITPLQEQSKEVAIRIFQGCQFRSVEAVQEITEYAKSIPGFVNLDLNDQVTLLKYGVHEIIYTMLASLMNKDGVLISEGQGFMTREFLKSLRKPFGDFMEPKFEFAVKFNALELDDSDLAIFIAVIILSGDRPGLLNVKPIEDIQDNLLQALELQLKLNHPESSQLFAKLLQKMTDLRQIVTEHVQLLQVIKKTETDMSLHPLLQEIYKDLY
T3 sequence (Q9Y618 whole entry): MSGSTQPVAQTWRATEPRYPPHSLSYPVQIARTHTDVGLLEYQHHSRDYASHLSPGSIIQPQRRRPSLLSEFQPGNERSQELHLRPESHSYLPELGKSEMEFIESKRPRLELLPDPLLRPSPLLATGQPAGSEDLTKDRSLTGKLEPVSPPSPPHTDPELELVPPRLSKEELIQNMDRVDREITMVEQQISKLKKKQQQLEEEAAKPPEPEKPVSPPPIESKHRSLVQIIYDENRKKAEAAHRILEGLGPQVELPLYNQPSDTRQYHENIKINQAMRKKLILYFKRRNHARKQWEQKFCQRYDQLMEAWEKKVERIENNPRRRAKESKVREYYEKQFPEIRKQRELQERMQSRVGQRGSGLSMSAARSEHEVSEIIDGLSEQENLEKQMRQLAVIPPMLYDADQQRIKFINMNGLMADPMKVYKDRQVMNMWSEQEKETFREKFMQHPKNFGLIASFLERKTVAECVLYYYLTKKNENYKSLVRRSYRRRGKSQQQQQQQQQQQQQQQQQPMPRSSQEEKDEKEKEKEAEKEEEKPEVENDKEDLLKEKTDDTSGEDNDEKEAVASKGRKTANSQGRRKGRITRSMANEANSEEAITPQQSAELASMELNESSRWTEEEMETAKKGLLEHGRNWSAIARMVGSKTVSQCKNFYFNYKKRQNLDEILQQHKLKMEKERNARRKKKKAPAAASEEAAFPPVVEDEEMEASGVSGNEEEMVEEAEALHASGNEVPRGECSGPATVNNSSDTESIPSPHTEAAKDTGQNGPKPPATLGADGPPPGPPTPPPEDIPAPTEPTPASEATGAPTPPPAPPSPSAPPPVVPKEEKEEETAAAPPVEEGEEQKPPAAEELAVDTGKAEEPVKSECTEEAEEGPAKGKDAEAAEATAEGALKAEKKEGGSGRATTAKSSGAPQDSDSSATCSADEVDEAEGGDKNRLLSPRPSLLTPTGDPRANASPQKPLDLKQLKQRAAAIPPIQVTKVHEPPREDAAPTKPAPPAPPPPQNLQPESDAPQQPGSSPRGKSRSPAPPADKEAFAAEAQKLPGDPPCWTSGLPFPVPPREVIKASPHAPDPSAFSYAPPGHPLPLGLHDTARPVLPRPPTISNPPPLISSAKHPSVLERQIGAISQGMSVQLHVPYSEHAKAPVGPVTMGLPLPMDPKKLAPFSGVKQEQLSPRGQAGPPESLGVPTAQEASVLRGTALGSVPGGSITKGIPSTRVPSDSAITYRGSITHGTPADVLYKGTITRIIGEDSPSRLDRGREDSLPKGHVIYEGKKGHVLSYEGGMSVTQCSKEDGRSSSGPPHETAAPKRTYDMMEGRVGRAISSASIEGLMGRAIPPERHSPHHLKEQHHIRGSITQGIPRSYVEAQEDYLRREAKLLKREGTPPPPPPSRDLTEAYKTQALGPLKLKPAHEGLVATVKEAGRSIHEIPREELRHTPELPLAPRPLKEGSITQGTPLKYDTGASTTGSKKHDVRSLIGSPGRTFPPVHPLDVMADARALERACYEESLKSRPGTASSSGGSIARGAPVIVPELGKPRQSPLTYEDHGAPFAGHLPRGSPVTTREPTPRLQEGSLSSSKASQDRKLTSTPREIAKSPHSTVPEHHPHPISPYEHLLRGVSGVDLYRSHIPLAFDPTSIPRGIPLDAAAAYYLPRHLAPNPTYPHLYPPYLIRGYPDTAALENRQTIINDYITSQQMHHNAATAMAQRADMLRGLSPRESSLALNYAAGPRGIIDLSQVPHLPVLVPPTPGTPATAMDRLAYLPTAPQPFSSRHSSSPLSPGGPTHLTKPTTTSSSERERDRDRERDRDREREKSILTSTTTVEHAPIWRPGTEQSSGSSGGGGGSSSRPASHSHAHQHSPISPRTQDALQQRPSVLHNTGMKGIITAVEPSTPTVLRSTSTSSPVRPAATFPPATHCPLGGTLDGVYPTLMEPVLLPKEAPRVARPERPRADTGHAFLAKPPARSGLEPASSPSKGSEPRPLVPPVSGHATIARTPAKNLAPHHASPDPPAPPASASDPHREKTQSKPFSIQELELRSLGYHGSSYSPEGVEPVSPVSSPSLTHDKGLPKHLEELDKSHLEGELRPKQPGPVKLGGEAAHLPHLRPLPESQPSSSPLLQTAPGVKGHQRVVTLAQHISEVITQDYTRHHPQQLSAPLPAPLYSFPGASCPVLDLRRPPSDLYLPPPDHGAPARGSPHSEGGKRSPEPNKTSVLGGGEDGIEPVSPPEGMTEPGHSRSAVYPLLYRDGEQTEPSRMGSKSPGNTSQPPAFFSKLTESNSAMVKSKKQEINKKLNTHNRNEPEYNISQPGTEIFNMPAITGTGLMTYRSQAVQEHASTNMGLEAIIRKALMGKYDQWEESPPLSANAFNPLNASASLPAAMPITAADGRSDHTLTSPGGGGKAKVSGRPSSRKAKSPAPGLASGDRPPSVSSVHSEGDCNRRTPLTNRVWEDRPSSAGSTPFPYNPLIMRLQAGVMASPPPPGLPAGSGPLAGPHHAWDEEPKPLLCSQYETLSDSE
Sequence of Induced myeloid leukemia cell differentiation protein Mcl-1 (Q07820 whole entry): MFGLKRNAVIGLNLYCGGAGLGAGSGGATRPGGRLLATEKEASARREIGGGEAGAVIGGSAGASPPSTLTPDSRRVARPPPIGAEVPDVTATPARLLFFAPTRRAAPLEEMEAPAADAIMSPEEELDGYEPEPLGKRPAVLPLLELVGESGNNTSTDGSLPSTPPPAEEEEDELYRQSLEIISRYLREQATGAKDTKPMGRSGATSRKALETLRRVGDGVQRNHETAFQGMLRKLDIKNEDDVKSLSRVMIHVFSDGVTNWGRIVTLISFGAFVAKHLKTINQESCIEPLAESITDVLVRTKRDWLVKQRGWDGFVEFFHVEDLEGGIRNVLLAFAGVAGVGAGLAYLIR

**Q.** What does the source list for `COc1ccc(N2CC(=O)C(c3nc4ccccc4s3)=C2N)cc1`?
**A.** IC50 [1]: > 111 µM (not active); IC50 [2]: 11.2 µM (not active)

**Q.** Which results are given for `Cc1ccsc1C(=O)C1CCCN(Cc2cnc(N3CCCC3)s2)C1` (configuration not stated)?
**A.** EC50 [3]: < 0.1 µM (active); EC50 [4]: > 60 µM (not active); EC50 [5]: 0.137 µM (active)

**Q.** Which IC50 [6] does the source give for `CCN(c1ccc(NC(=O)COC(=O)c2ccc(C)c(S(=O)(=O)N3CCOCC3)c2)cc1)C(C)C` here?
**A.** 1.67 µM (not active)

**Q.** With `CCCCN(CC)CCCNC(=O)C1CCN(c2ncnc3c2sc2cccc(F)c23)CC1` as the compound, how does the EC50 [3] read?
**A.** < 0.1 µM (active)

**Q.** And the EC50 [4]?
**A.** > 30 µM (not active)

**Q.** And the EC50 [5]?
**A.** 0.294 µM (active)

**Q.** With `COCCOC(=O)c1c(NC(=O)COC(=O)Cc2cccc(OC)c2)sc(C(N)=O)c1C` as the compound, how does the IC50 [1] read?
**A.** > 111 µM (not active)

**Q.** And the IC50 [2]?
**A.** > 5.47 µM (active)

**Q.** With `O=C(CSc1ccc(-c2cccs2)nn1)N1CCCCC1` as the compound, how does the IC50 [7] read?
**A.** 8.03 µM (active)

**Q.** And the IC50 [8]?
**A.** 2.64 µM (active)

**Q.** Which EC50 [9] does the source give for `CC1NC(=O)NC1CCCCCC(=O)NCCc1ccccc1` (configuration not stated) here?
**A.** 1.93 µM (active)

**Q.** And the IC50 [10]?
**A.** > 29.9 µM (inactive)

**Q.** And the EC50 [11]?
**A.** > 29.9 µM (inactive)

**Q.** What about the IC50 [12] of the same compound?
**A.** 3.01 µM (active)

**Q.** What about the IC50 [13] of the same compound?
**A.** 6.36 µM (active)

**Q.** And the IC50 [14]?
**A.** 1.06 µM (active)

**Q.** Which EC50 [15] does the source give for `O=C(CSC1=NCCS1)Nc1nc2c(s1)CCCC2` here?
**A.** > 50 µM (active)

**Q.** What does the source list for `COc1ccc(C(=O)Nc2ccc(NC(=O)c3cccs3)cn2)cc1`?
**A.** IC50 [7]: 7.65 µM (active); IC50 [8]: 7.18 µM (active)
